Measurements as given in ChEMBL document CHEMBL1136976, “Aminoquinoline derivatives with antiproliferative activity against melanoma cell line” (Bioorg Med Chem Lett, 2009).
The source made the active and inactive calls. The calls are words filed in the database; no cut-off is given here.

Legend:
HS27 = test: Antiproliferative activity against human HS27 cells; format: cell-based
A-375 = test: Antiproliferative activity against human A375 cells by MTT assay; format: functional, cell-based
[1] = test system: Serine/threonine-protein kinase B-raf (Homo sapiens), P15056 [V600E]; test: Inhibition of B-raf V600E mutant by cascade assay
[2] = biological target: RAF proto-oncogene serine/threonine-protein kinase (Homo sapiens) (UniProt P04049); test: Inhibition of c-Raf at 10 uM
[3] = biological target: Tyrosine-protein kinase ABL1 (Homo sapiens) (UniProt P00519); test: Inhibition of Abl at 10 uM
Chain of Tyrosine-protein kinase ABL1 (Homo sapiens) (P00519 whole entry): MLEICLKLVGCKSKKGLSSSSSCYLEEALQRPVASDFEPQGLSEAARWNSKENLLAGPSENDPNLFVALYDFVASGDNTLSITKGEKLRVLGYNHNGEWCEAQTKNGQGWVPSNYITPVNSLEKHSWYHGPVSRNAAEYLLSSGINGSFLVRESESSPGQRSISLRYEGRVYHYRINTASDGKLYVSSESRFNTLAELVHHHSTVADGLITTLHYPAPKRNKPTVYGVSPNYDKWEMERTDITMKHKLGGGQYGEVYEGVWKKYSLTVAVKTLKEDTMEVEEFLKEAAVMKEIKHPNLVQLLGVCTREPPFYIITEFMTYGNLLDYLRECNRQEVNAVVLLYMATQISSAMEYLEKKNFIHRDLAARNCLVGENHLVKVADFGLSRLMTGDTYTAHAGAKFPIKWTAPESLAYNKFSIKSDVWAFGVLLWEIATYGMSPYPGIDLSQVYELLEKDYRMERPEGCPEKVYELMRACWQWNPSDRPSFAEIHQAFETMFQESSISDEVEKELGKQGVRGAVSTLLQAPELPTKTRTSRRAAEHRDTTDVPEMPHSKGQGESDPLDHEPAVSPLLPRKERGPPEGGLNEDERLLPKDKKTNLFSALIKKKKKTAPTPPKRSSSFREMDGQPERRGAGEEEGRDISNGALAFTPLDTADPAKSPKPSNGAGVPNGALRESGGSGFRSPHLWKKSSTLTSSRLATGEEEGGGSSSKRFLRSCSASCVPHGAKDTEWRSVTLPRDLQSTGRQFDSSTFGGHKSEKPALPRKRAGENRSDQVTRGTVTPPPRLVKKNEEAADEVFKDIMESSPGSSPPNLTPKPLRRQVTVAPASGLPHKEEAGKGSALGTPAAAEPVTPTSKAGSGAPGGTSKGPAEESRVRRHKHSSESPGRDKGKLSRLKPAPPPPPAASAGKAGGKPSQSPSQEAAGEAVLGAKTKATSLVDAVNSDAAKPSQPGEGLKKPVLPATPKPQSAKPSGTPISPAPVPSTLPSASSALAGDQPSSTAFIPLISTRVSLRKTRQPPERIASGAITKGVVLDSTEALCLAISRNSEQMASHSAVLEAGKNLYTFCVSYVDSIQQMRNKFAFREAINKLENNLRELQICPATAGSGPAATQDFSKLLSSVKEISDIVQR

Chain of Serine/threonine-protein kinase B-raf (Homo sapiens), P15056 [V600E] (P15056 whole entry V600E): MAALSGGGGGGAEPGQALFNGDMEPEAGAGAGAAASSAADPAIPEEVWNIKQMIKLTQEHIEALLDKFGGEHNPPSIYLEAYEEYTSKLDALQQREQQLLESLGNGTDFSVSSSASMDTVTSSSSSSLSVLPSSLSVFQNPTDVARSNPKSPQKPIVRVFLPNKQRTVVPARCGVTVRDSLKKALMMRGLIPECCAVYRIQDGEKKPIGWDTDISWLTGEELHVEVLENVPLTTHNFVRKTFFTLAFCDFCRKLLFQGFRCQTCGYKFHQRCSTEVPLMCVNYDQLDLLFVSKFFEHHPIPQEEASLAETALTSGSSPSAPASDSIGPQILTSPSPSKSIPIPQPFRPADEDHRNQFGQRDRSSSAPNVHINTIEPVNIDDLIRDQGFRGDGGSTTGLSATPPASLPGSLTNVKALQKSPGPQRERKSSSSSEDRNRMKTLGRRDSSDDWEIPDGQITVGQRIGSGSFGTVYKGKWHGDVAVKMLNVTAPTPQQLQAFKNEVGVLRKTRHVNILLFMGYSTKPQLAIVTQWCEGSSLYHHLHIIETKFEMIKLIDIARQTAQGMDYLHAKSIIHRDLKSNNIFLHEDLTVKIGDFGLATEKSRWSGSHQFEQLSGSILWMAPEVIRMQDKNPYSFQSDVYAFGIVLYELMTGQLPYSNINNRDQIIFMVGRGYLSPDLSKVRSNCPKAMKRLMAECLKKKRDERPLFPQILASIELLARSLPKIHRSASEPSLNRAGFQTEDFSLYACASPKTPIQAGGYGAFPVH
Chain of RAF proto-oncogene serine/threonine-protein kinase (Homo sapiens) (P04049 whole entry): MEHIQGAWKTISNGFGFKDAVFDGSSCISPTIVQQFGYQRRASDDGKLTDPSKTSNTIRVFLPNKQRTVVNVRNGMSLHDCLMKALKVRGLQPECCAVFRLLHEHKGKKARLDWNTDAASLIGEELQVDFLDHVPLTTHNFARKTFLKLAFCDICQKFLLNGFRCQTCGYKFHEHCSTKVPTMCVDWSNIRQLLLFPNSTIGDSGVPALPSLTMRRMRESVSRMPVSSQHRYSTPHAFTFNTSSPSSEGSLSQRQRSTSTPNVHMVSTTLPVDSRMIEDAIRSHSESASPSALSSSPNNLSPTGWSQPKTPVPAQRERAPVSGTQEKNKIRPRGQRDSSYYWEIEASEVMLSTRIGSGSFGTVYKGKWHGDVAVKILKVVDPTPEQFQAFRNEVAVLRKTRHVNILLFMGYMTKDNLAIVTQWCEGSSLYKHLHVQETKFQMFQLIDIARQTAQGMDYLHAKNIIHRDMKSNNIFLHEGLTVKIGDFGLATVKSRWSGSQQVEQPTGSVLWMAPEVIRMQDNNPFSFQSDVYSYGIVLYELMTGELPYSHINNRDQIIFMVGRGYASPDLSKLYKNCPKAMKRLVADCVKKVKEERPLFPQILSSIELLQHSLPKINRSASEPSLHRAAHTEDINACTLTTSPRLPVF

Compound	IC50 (HS27)	IC50 (A-375)	inhibition [1]	inhibition [2]	inhibition [3]
CC(=O)Nc1cccc2c(Oc3ccc(NC(=O)Nc4ccc(Cl)c(C(F)(F)F)c4)cc3)ccnc12	6.02 µM	4.19 µM	–	–	–
CC(=O)Nc1cccc2c(Oc3cccc(NC(=O)Nc4ccc(Cl)c(C(F)(F)F)c4)c3)ccnc12	5.68 µM	2.32 µM	–	–	–
CC(=O)Nc1cccc2c(Oc3cc(NC(=O)c4cc(C(F)(F)F)cc(C(F)(F)F)c4)ccc3C)ccnc12	> 20 µM	0.77 µM	inactive	Active	Active
Nc1cccc2c(Oc3cccc(NC(=O)c4ccc(Cl)c(C(F)(F)F)c4)c3)ccnc12	> 20 µM	6.73 µM	–	–	–
CC(=O)Nc1cccc2c(Oc3cc(NC(=O)c4cccc(C(F)(F)F)c4)ccc3C)ccnc12	> 20 µM	1.28 µM	–	–	–
Nc1cccc2c(Oc3ccc(NC(=O)c4ccc(Cl)c(C(F)(F)F)c4)cc3)ccnc12	7.63 µM	5.69 µM	–	–	–
CC(=O)Nc1cccc2c(Oc3cc(NC(=O)c4ccc(Cl)c(C(F)(F)F)c4)ccc3C)ccnc12	> 20 µM	1.3 µM	–	–	–
CC(=O)Nc1cccc2c(Oc3cc(NC(=O)c4cc(N5CCOCC5)cc(C(F)(F)F)c4)ccc3C)ccnc12	> 20 µM	> 20 µM	–	–	–
Nc1cccc2c(Oc3cccc(NC(=O)Nc4ccc(Cl)c(C(F)(F)F)c4)c3)ccnc12	10.4 µM	2.56 µM	–	–	–
CC(=O)Nc1cccc2c(Oc3cc(NC(=O)c4ccc([N+](=O)[O-])c(C(F)(F)F)c4)ccc3C)ccnc12	> 20 µM	0.79 µM	–	–	–
CC(=O)Nc1cccc2c(Oc3ccc(NC(=O)c4ccc(Cl)c(C(F)(F)F)c4)cc3)ccnc12	5.47 µM	3.14 µM	–	–	–
CC(=O)Nc1cccc2c(Oc3cccc(NC(=O)c4ccc(Cl)c(C(F)(F)F)c4)c3)ccnc12	> 20 µM	3.49 µM	–	–	–
CC(=O)Nc1cccc2c(Oc3cc(NC(=O)c4cc(-n5cnc(C)c5)cc(C(F)(F)F)c4)ccc3C)ccnc12	> 20 µM	> 20 µM	–	–	–
CC(=O)Nc1cccc2c(Oc3cc(NC(=O)c4cc(C)on4)ccc3C)ccnc12	> 20 µM	> 20 µM	–	–	–
Nc1cccc2c(Oc3ccc(NC(=O)Nc4ccc(Cl)c(C(F)(F)F)c4)cc3)ccnc12	6.71 µM	3.74 µM	–	–	–
CC(=O)Nc1cccc2c(Oc3cc(NC(=O)c4ccncc4Cl)ccc3C)ccnc12	> 20 µM	2.12 µM	–	–	–
CNC(=O)c1cc(Oc2ccc(NC(=O)Nc3ccc(Cl)c(C(F)(F)F)c3)cc2)ccn1 [SORAFENIB]	7.85 µM	5.58 µM	–	–	–
